From US20230056057A1, “HERBICIDE CO[…] MONOETHANOLAMINE SALT AND A PPO-INHIBITOR” (MONSANTO TECHNOLOGY LLC, priority 2020, published 2023)
Structures can show the parent of a compound that is named as a salt.

Row | Compound | crystallization at higher loadings (higher loadings) | tendency to salt out (at higher concentrations, compared to the dicamba DGA salt)
1 | COc1c(Cl)ccc(Cl)c1C(=O)O.NCCOCCO [dicamba DGA salt, diglycolamine (DGA) salt of dicamba] | crystallizes out | –
2 | COc1c(Cl)ccc(Cl)c1C(=O)O [dicamba EA salt, dicamba monoethanolamine salt] | – | less tendency to salt out
